Laboratory results as given in patent US20060069132A1, “Azolecarboxamide herbicides” (priority 2004, published 2006).

Experiments:
barnyardgrass [1] = test: Test A pre-/postemergence herbicide test; format: in vivo, Echinochloa crus-galli
Outline: (§1)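 Both application timings were run together: directed soil spray over freshly planted seeds in sandy loam, and runoff spray onto 2–10 cm seedlings. Evaluation after ~10 days in greenhouse used a 0–100 visual scale versus untreated controls.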

rice [2] = test: Test B pre-/postemergence herbicide test; format: in vivo, Oryza sativa; conditions: preemergence, 125 g ai/ha; 0 to 100 scale, 0 is no effect, 100 is complete control
Outline: (§2)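 Test chemicals in a non-phytotoxic solvent mixture with surfactant were applied preemergence to seeded species and postemergence to plants 2-18 cm tall (1- to 4-leaf stage); rice and barnyardgrass were also tested in a flooded paddy at the 2-leaf stage. Visual rating versus controls after 13-15 days in greenhouse, scale 0 (no effect) to 100 (complete control).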

giant foxtail [3] = test: Test A pre-/postemergence herbicide test; format: in vivo, Setaria faberi
Outline: as §1

lambsquarters = test: Test B pre-/postemergence herbicide test; format: in vivo, Chenopodium album
Outline: as §2

wheat = test: Test B postemergence herbicide test; format: in vivo, Triticum aestivum; set-up: key to Wheat plant response rating: 0 = no effect, 100 = complete control; conditions: scale 0 (no effect) to 100 (complete control)
Outline: (§3)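 Plants grow to 1- to 4-leaf stage (2–18 cm) for postemergence spraying, or to 2-leaf stage for the paddy test. Formulated compound is applied. Greenhouse holding lasts 13–15 days. Response is scored visually relative to controls, 0 no effect to 100 complete control; a dash means no result.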

morningglory [4] = test: Test B pre-/postemergence herbicide test; format: in vivo, Ipomoea coccinea
Outline: (§4)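 Plants compared with untreated controls 13–15 days post-treatment and given a visual 0–100 injury score. Applications: preemergence to seeds; postemergence at 1- to 4-leaf (2–18 cm); paddy species flooded, 2-leaf stage. Vehicle non-phytotoxic, surfactant included.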

giant foxtail [5] = test: Test B pre-/postemergence herbicide test; format: in vivo, Setaria faberi
Outline: as §2

large crabgrass [6] = test: Test A pre-/postemergence herbicide test; format: in vivo, Digitaria sanguinalis
Outline: as §1

morningglory [7] = test: Test A pre-/postemergence herbicide test; format: in vivo, Ipomoea spp.
Outline: as §1

wild oat = test: Test B postemergence herbicide test; format: in vivo, Avena fatua; conditions: scale 0 (no effect) to 100 (complete control)
Outline: as §3

pigweed = test: Test B pre-/postemergence herbicide test; format: in vivo, Amaranthus retroflexus
Outline: as §2

barnyardgrass [8] = test: Test B pre-/postemergence herbicide test; format: in vivo, Echinochloa crus-galli
Outline: as §4

cocklebur = test: Test B pre-/postemergence herbicide test; format: in vivo, Xanthium strumarium
Outline: as §4

barnyardgrass [9] = test: Test B flooded paddy test; format: in vivo, Echinochloa crus-galli; conditions: 1000 g ai/ha, visual rating, scale 0 to 100 (0 no effect, 100 complete control), 13 to 15 days
Outline: (§5)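 Formulated test chemicals went onto postemergence plants measuring 2 to 18 cm, at one to four leaves. For the paddy assay, species had reached two leaves. Scoring took place 13–15 days later by eye, relative to untreated plants, using 0 for no effect up to 100 for full control.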

velvetleaf [10] = test: Test A pre-/postemergence herbicide test; format: in vivo, Abutilon theophrasti
Outline: as §1

redroot pigweed = test: Test A pre-/postemergence herbicide test; format: in vivo, Amaranthus retroflexus
Outline: as §1

Surinam grass = test: Test B pre-/postemergence herbicide test; format: in vivo, Urochloa decumbens
Outline: as §2

corn = test: Test B pre-/postemergence herbicide test; format: in vivo, Zea mays
Outline: as §2

large crabgrass [11] = test: Test B pre-/postemergence herbicide test; format: in vivo, Digitaria sanguinalis
Outline: as §2

ducksalad = test: Test B flooded paddy test; format: in vivo, Heteranthera limosa; conditions: 1000 g ai/ha, visual rating, scale 0 to 100 (0 no effect, 100 complete control), 13 to 15 days
Outline: as §5

[12] = system: small flower umbrella sedge; test: Test B flooded paddy test; format: in vivo, Cyperus difformis; conditions: 1000 g ai/ha, visual rating, scale 0 to 100 (0 no effect, 100 complete control), 13 to 15 days
Outline: as §5

rice [13] = test: Test B flooded paddy test; format: in vivo, Oryza sativa; conditions: 1000 g ai/ha, visual rating, scale 0 to 100 (0 no effect, 100 complete control), 13 to 15 days
Outline: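 Paddy species grown to the 2-leaf stage under flooding; blackgrass sprayed postemergence at 2–18 cm (1- to 4-leaf stage). Plants kept in a greenhouse for 13 to 15 days, then visually rated against controls on 0 (no effect) to 100 (complete control).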

blackgrass = test: Test B postemergence herbicide test; format: in vivo, Alopecurus myosuroides; conditions: scale 0 (no effect) to 100 (complete control)
Outline: as §5

velvetleaf [14] = test: Test B pre-/postemergence herbicide test; format: in vivo, Abutilon theophrasti
Outline: as §2

[15] = Postemergence, 500 g ai/ha, 0 to 100 scale, 0 no effect, 100 complete control
[16] = Postemergence, 2000 g ai/ha, 0 to 100 scale, 0 no effect, 100 complete control
[17] = Preemergence, 500 g ai/ha, visual rating, 0 to 100 scale (0 no effect, 100 complete control)
[18] = Preemergence, 2000 g ai/ha, 0 to 100 scale, 0 no effect, 100 complete control
[19] = Postemergence, 500 g ai/ha, visual rating after 13 to 15 days, scale 0 (no effect) to 100 (complete control)
[20] = postemergence, 125 g ai/ha, visual rating, scale 0 (no effect) to 100 (complete control)
[21] = preemergence, 125 g ai/ha, 0 to 100 scale, 0 is no effect, 100 is complete control
[22] = Postemergence, 500 g ai/ha, visual rating after 13 to 15 days
[23] = postemergence, 125 g ai/ha, visual rating
[24] = Preemergence, 500 g ai/ha, scale 0 to 100

CCn1nc(C(C)(C)C)cc1C(=O)Nc1cccc(C(=O)OC)c1C [Compound 87]
55: Plant response rating, Barnyardgrass (barnyardgrass [1]; [16]) | Barnyardgrass plant response rating (barnyardgrass [1]; [17])
40: Plant response rating, Pigweed (pigweed; [21])
50: Plant response rating, Foxtail, Giant (giant foxtail [3]; [16])
0: Plant response rating, Rice (rice [2]) | Plant response rating, Lambsquarters (lambsquarters; [19]) | Lambsquarters plant response rating (lambsquarters; [20]) | Plant response rating, Wheat (wheat; [22]) | Wheat plant response rating (wheat; [23]) | Plant response rating, Morningglory (morningglory [4]; [19]) | Morningglory plant response rating (morningglory [4]; [20]) | Plant response rating, Morningglory (morningglory [4]; [21]) | Plant response rating, Foxtail, Giant (giant foxtail [5]; [19]) | Foxtail, Giant plant response rating (giant foxtail [5]; [20]) | Plant response rating, Oat, Wild (wild oat; [22]) | Oat, Wild plant response rating (wild oat; [23]) | Plant response rating, Pigweed (pigweed; [19]) | Pigweed plant response rating (pigweed; [20]) | Plant response rating, Barnyardgrass (barnyardgrass [8]; [19]) | Barnyardgrass plant response rating (barnyardgrass [8]; [20]) | Plant response rating, Cocklebur (cocklebur; [19]) | Cocklebur plant response rating (cocklebur; [24]) | Cocklebur plant response rating (cocklebur; [20]) | Plant response rating, Cocklebur (cocklebur; [21]) | Plant response rating, Surinam Grass (Surinam grass; [19]) | Surinam Grass plant response rating (Surinam grass; [20]) | Plant response rating, Surinam Grass (Surinam grass; [21]) | Plant response rating, Corn (corn; [19]) | Corn plant response rating (corn; [24]) | Corn plant response rating (corn; [20]) | Plant response rating, Corn (corn; [21]) | Crabgrass, Large plant response rating (large crabgrass [11]; [20]) | Plant response rating, Blackgrass (blackgrass; [22]) | Blackgrass plant response rating (blackgrass; [23]) | Plant response rating, Velvetleaf (velvetleaf [14]; [19]) | Velvetleaf plant response rating (velvetleaf [14]; [20]) | Plant response rating, Velvetleaf (velvetleaf [14]; [21])
20: Foxtail, Giant plant response rating (giant foxtail [3]; [15]) | Crabgrass, Large plant response rating (large crabgrass [6]; [15]) | Plant response rating, Morningglory (morningglory [7]; [16]) | Plant response rating, Barnyardgrass (barnyardgrass [8]; [21]) | Barnyardgrass plant response rating (barnyardgrass [9]) | Ducksalad plant response rating (ducksalad)
25: Plant response rating, Velvetleaf (velvetleaf [10]; [16]) | Velvetleaf plant response rating (velvetleaf [10]; [17])
80: Foxtail, Giant plant response rating (giant foxtail [5]; [24]) | Sedge, Umbrella plant response rating [12]
90: Barnyardgrass plant response rating (barnyardgrass [1]; [18]) | Foxtail, Giant plant response rating (giant foxtail [3]; [18]) | Crabgrass, Large plant response rating (large crabgrass [6]; [17]) | Plant response rating, Crabgrass, Large (large crabgrass [11]; [21])
60: Plant response rating, Crabgrass, Large (large crabgrass [6]; [16]) | Pigweed plant response rating (redroot pigweed; [17]) | Plant response rating, Crabgrass, Large (large crabgrass [11]; [19])
100: Crabgrass, Large plant response rating (large crabgrass [11]; [24])
35: Foxtail, Giant plant response rating (giant foxtail [3]; [17]) | Plant response rating, Pigweed (redroot pigweed; [16])
10: Plant response rating, Foxtail, Giant (giant foxtail [5]; [21]) | Velvetleaf plant response rating (velvetleaf [10]; [15]) | Pigweed plant response rating (redroot pigweed; [15]) | Rice plant response rating (rice [13])
65: Velvetleaf plant response rating (velvetleaf [10]; Preemergence, 2000 g ai/ha, visual rating, 0 to 100 scale (0 no effect, 100 complete control))
95: Crabgrass, Large plant response rating (large crabgrass [6]; [18]) | Pigweed plant response rating (redroot pigweed; [18])
15: Barnyardgrass plant response rating (barnyardgrass [1]; [15]) | Morningglory plant response rating (morningglory [7]; [15]) | Morningglory plant response rating (morningglory [7]; [17]) | Morningglory plant response rating (morningglory [7]; [18])
70: Plant response rating, Lambsquarters (lambsquarters; [21]) | Barnyardgrass plant response rating (barnyardgrass [8]; [24])
